Test [1] deals with ERE-directed transactivation. The test is described as follows: ERE-promoter-reporter luciferase assay, transient co-transfection. The test is classed as cell-based, Old World primate.
The test system of another test is hsp27. Nature of the test: Western blot analysis of hsp27 expression in wild-type breast cells. Particulars: wild-type control cells, Western blot with anti-hsp27 antibody. It is filed as cell-based, Old World primate.
The subject of another test is glucocorticoid receptors. The conditions noted are these: New World primate cells; cited from earlier work.
In another test the test system is ERE. The test is described as follows: Electrophoretic mobility shift analysis (EMSA) with idealized ERE as probe. It is filed as binding. Particulars: postnuclear extracts from OWP-IEBP stable transfectant clone 1, recombinant ERα. How it is done:
This is believed to be due, at least in part, to enhanced binding of estrogens. To determine whether IEBP also functions as a direct competitor for ERE-binding, the inventors carried out electrophoretic mobility shift analyses (EMSAs) using an idealized ERE as a probe with recombinant ERα and/or postnuclear extracts from OWP-IEBP stable transfectant clone 1 as binding proteins. […] To assess this possibility, coimmunoprecipitation was performed by using anti-ERα and anti-hsp27 antibodies. Antihuman ERα antibodies were used to immunoprecipitate […] proteins in postnuculear extracts of both wild-type and IEBP-stably-transfected cells. The immunoprecipitates were subjected to Western blot analysis by using hsp27 antibodies. Data confirmed association between ERα and hsp27. Similar results were also obtained following initial immunoprecipitation with hsp27, and subsequent ERα blotting.

Test [2] has as its system ERE-directed transactivation. The test is described as follows: ERE luciferase reporter assay in cells stably transfected with IEBP. It is filed as cell-based, Old World primate. Particulars: stable transfectants compared with wild-type cells. How it is done: E2-responsive OWP breast cells from cell line 6299 were incubated with 5.0 ug pcDNA3.1/v5-His-TOPO IEBP plasmid in LIPOTAXI solution for 5 hours followed by the addition of equal volume of 20% FCS-supplemented medium. After incubation overnight, cells were split (1:10 ratio) and incubated with fresh medium containing 500 ug/ml of the geneticin-selective antibiotic G418 sulfate (Life Technology; Grand Island, N.Y.). This medium was replaced every 3-4 days, until stable colonies formed. Single colonies were picked, transferred into a new dish, and incubated with medium containing selection antibiotic G418 until confluence for further study.
Experiments were therefore carried out to clarify whether the overexpression of IEBP antagonized, facilitated, or did nothing to estrogen-induced transactivation. Estrogen-responsive Old World primate cells were transiently co-transfected with IEBP cDNA and an ERE-promoter-reporter construct. After transfection, ERE-directed luciferase activity was reduced 50% compared to vector alone-transfected Old World primate cells. […] Similar results were also obtained following stable transfection of IEBP into Old World primate cells. Increased expression of IEBP in these cells was confirmed by Western blot analyses using an anti-hsp27 antibody.

Entries after “also recorded” stand apart in the source; their conditions may differ.

`C[C@]12CC[C@@H]3c4ccc(O)cc4CC[C@H]3[C@@H]1CC[C@@H]2O` [E2, 17β-estradiol]: the “effect on ERE-mediated transcription” value in test [1] (transient transfectants, E2 pre-treatment in control cells) is on record as “stimulated ERE-mediated transcription”. Also, in the test on hsp27, the hsp27 expression result is reported as “stimulated hsp27 expression in a dose-dependent fashion; also recorded: strongly increased hsp27 expression”.
“FKBP51: heat-shock protein (hsp)90-associated FK 506-binding immunophilin”: in the test with glucocorticoid receptors, the “inhibition of ligand binding to glucocorticoid receptors” value is recorded as 74%.

B1: IEBP: novel hsp27-related intracellular estradiol binding protein from New World primate B95-8 cells, SEQ ID NO:1 (protein, listed as Homo sapiens)
chain: MTERHVPFSLLQSPSWDPFRDWYPHSHLFDQAFGMPRLPEEWSQWFGTSSWPGYVRPLPPTTVEGPAVAAPAYSRALNQQLSSGVSETADRWRVSLDVNHFAPEELTVKTKDGVVEITGKHEERQDEHGFISRCFTRKYSLPPGVDPTQVSPSLSPEGTLTVDAPMSKPATQSNEITIPVTFESRAQLGGPEAAKSDRSAAK
B1: in the test on ERE, the “binding to ERE and competition with ERα for ERE” value is “neither bound to ERE nor competed with the ERα for binding to ERE”. The “reduction of ERE-directed luciferase activity” value in test [1] (transient co-transfection of cDNA and ERE-promoter-reporter construct, compared to vector alone-transfected Old World primate cells) is reported as 50%. In addition, in test [2], the “decrease of ERE luciferase reporter activity” value is 2-3 fold.
